Measured values reported in patent publication US6696486B1, “Medical use for atypical β-adrenoceptor agonists” (Glaxo Group Limited, priority 1992, dated 2004).

Columns and labels:
[1] = tested on: indomethacin-induced antral damage; assay: indomethacin-induced gastric antral lesions in the re-fed rat (Method 2); type: in vivo; conditions: for % Protection: single dose 30 minutes before indomethacin (60 mg/kg s.c.)
Text: An experimental model in which atypical beta-adrenoceptor agonists may be shown to be of use in the treatment of gastrointestinal disorders is described below as Method 2. The procedure is based upon that described by H. Satoh et. al., Gastroenterology, 81, 719-725 (1981) in which the effect of compounds on indomethacin-induced gastric antral lesions in the re-fed rat is investigated. Indomethacin is an example of the class of compound known as non-steroidal anti-inflammatory drugs (NSAIDs), the use of which is frequently associated with gastrointestinal ulcers.
Food (but not water) is withheld from female random hooded rats (70-120 g) for 24 hours and then the rats are re-fed with Rat and Mouse No. 1 Maintenance Diet. After 1 hour of access to food, the rats are dosed orally with either the test compound or solvent (0.5% w/v methyl cellulose in water). 30 minutes later, indomethacin (60 mg/kg; dissolved in 1% w/v NaHCO3 in saline) is administered as a single subcutaneous injection at the back of the neck. Subsequently, the rats are allowed food, but water is withheld, and the animals are humanely killed by cervical dislocation at 6 hours post dose. Control animals received a single subcutaneous dose of the appropriate solvent.
The rat's stomach is removed (with a small amount of duodenum attached), opened along the greater curvature and the contents removed by washing with 0.9% w/v sodium chloride solution (saline). The opened stomach is pinned out (mucosal surface uppermost) on a polystyrene mat and the area of damage assessed by placing a grid (composed of 1 mm squares) over the antral region. Antral damage appears as discrete black or dark brown ulcers. The total area of antral damage is then expressed as a percentage of the total surface area of the antrum.
The protective effect of the test compound on indomethacin-induced antral damage is calculated as a percentage using the following equation: [formula]

[2] = tested on: indomethacin-induced ulceration of the small intestine; assay: indomethacin-induced ulceration of the small intestine in the rat (Method 3); type: in vivo; conditions: single dose 30 minutes before indomethacin (15 mg/kg p.o.)
Procedure: Another experimental model in which atypical beta-adrenocopter agonists may be shown to be of use in the treatment of gastrointestinal disorders is described below as Method 3. This is a model of indomethacin-induced ulceration of the small intestine in the rat.
Female random hooded rats (100-150 g) are allowed free access to food and water. The rats are dosed orally with either the test compound (1 ml per 100 g of an appropriated dose) or solvent (0.5% w/v methyl cellulose in water). 30 minutes later, indomethacin (15 mg/kg) is administered orally using a dose volume of 1 ml per 100 g of a 1.5 mg/ml solution of indomethacin in 1% w/v NaHCO3. The animals are humanely killed by cervical dislocation at 48 hours post dose.
The rat's small intestine is removed, opened along its length and the contents removed by washing with 0.9% w/v sodium chloride solution (saline). The opened small intestine is pinned out (mucosal surface uppermost) on a polystyrene mat and the area of damage assessed by placing a grid (composed of 1 mm squares) over the preparation. The number of visible ulcers (appearing as discrete black or brown lesions) running the length of the small intestine is counted. The protective effect of the test compound is calculated as a percentage using the following equation: [formula]

[3] = tested on: piroxicam-induced antral damage; type: in vivo, rat
[4] = inhibition of indomethacin-induced antral ulceration in rat
[5] = 0.5 mg/kg p.o., single dose 30 minutes before NSAID

## COC(=O)COc1ccc(C[C@@H](C)NC[C@H](O)c2cccc(Cl)c2)cc1 [(R,R)-N-[2-(4-carbomethoxymethoxyphenyl)-1-methylethyl]-2-hydroxy-2-(3-chlorophenyl)ethanamine]
[1]; dose 3 mg/kg p.o.
  Maximum Inhibition (dose; mg/kg p.o.): 100% (3)
[1]; [4]
  ED50: 0.02 mg/kg p.o.

## C[C@H](Cc1ccc(OCC(=O)O)cc1)NC[C@H](O)c1cccc(Cl)c1 [(R,R)-N-[2-(4-carboxymethoxyphenyl)-1-methylethyl]-2-hydroxy-2-(3-chlorophenyl)ethanamine]
[1]; dose 3 mg/kg p.o.
  Maximum Inhibition (dose; mg/kg p.o.): 100% (3)
[1]; [4]
  ED50: 0.03 mg/kg p.o.

## C[C@H](Cc1ccc2c(c1)OC(C(=O)O)(C(=O)O)O2)NC[C@@H](O)c1cccc(Cl)c1 [(R,S)-5-(2-((2-(3-chlorophenyl)-2-hydroxyethyl)amino)propyl)-1,3-benzodioxole-2,2-dicarboxylic acid]
[1]; dose 1 mg/kg p.o.
  Maximum Inhibition (dose; mg/kg p.o.): 64% (1)
[1]; [4]
  ED50: 0.6 mg/kg p.o.

## COC(=O)COc1ccc(C[C@H](C)NC[C@H](O)c2cccc(Cl)c2)cc1 [(R,S)-N-[2-(4-carbomethoxymethoxyphenyl)-1-methylethyl]-2-hydroxy-2-(3-chlorophenyl)ethanamine]
[1]; dose 3 mg/kg p.o.
  Maximum Inhibition (dose; mg/kg p.o.): 93% (3)
[1]; [4]
  ED50: 0.2 mg/kg p.o.

## C[C@@H](Cc1ccc(OCC(=O)O)cc1)NC[C@H](O)c1cccc(Cl)c1 [(R,S)-N-[2-(4-carboxymethoxyphenyl)-1-methylethyl]-2-hydroxy-2-(3-chlorophenyl)ethanamine]
[1]; dose 3 mg/kg p.o.
  Maximum Inhibition (dose; mg/kg p.o.): 77% (3)
[1]; [4]
  ED50: 0.3 mg/kg p.o.

## COC(=O)COc1ccc(C[C@@H](C)NC[C@@H](O)c2cccc(Cl)c2)cc1 [(S,R)-N-[2-(4-carbomethoxymethoxyphenyl)-1-methylethyl]-2-hydroxy-2-(3-chlorophenyl)ethanamine]
[1]; dose 3 mg/kg p.o.
  Maximum Inhibition (dose; mg/kg p.o.): 88% (3)
[1]; [4]
  ED50: 0.5 mg/kg p.o.

## C[C@@H](Cc1ccc(OCC(=O)O)cc1)NC[C@@H](O)c1cccc(Cl)c1 [(S,S)-N-[2-(4-carboxymethoxyphenyl)-1-methylethyl]-2-hydroxy-2-(3-chlorophenyl)ethanamine]
[1]; dose 3 mg/kg p.o.
  Maximum Inhibition (dose; mg/kg p.o.): 97% (3)
[1]; [4]
  ED50: 0.8 mg/kg p.o.

## COC(=O)COc1ccc(CC(C)NCC(O)c2cccc(Cl)c2)cc1 (stereo not shown) [BRL 35135, N-[2-(4-carbomethoxymethoxyphenyl)-1-methylethyl]-2-hydroxy-2-(3-chlorophenyl)ethanamine]
[2]; 0.05 mg/kg p.o.
  % inhibition: 24 ± 15%
[2]; 0.1 mg/kg p.o.
  % inhibition: 35 ± 7%
[2]; 0.5 mg/kg p.o.
  % inhibition: 76 ± 3%
[2]; 2.5 mg/kg p.o.
  % inhibition: 85 ± 3%
[2]; 10 mg/kg p.o.
  % inhibition: 80 ± 3%
[1]; 20 μg/kg p.o.
  % Protection: 40%
[1]; 50 μg/kg p.o.
  % Protection: 48%
[1]; 100 μg/kg p.o.
  % Protection: 88%
[1]; 500 μg/kg p.o.
  % Protection: 97%
[1]; gastro-protection against indomethacin-induced antral damage, rat
  ED50: approximately 50 μg/kg p.o.

## C[C@H](Cc1ccc2c(c1)OC(C(=O)O)(C(=O)O)O2)NC[C@H](O)c1cccc(Cl)c1 [CL 316243, (R,R)-5-(2-((2-(3-chlorophenyl)-2-hydroxyethyl)amino)propyl)-1,3-benzodioxole-2,2-dicarboxylic acid]
[2]; 10 mg/kg p.o.
  % inhibition: 93 ± 4%
[3]; [5]
  % inhibition of piroxicam-induced damage: 96%
[1]; [5]
  % inhibition of indomethacin-induced damage: 83%
[1]; dose 1 mg/kg p.o.
  Maximum Inhibition (dose; mg/kg p.o.): 96% (1)
[1]; [4]
  ED50: 0.03 mg/kg p.o.

## COc1ccc2c(c1)c(CC(=O)O)c(C)n2C(=O)c1ccc(Cl)cc1 [indomethacin, reference compound]
[1]; subcutaneous dose of 60 mg/kg, rat
  percentage area of damage (antral): 19±5%

## CN1C(C(=O)Nc2ccccn2)=C(O)c2ccccc2S1(=O)=O [piroxicam, reference compound]
[3]; female, random hooded, rat, in vivo, sc, 60 mg/kg, 6 h
  percentage area of antral damage: 21±3%
